The values below come from ChEMBL document CHEMBL5465560, “Selectivity Literature for EUbOPEN Chemogenomic Library” (2024).

Experiment [1] deals with Tau-tubulin kinase 1 (Homo sapiens) (UniProt Q5TCY1). Put plainly: Selectivity interaction (ProQinase) EUB0000171b TTBK1.
Experiment [2] has as its target 5-hydroxytryptamine receptor 1D (Homo sapiens) (UniProt P28221). Put plainly: Selectivity interaction (GPCR panel (PDSP screen)) EUB0001079a HTR1D. The settings on record: at 10 µM.
Experiment [3] addresses Ribosomal protein S6 kinase alpha-1 (Homo sapiens, UniProt Q15418). Put plainly: Selectivity interaction (Kinase screening (Nanosyn)) EUB0000604a RPS6KA1.
The target of experiment [4] is T1, Serine/threonine-protein kinase Nek2 (Homo sapiens) (UniProt P51955).
T1 sequence (whole entry): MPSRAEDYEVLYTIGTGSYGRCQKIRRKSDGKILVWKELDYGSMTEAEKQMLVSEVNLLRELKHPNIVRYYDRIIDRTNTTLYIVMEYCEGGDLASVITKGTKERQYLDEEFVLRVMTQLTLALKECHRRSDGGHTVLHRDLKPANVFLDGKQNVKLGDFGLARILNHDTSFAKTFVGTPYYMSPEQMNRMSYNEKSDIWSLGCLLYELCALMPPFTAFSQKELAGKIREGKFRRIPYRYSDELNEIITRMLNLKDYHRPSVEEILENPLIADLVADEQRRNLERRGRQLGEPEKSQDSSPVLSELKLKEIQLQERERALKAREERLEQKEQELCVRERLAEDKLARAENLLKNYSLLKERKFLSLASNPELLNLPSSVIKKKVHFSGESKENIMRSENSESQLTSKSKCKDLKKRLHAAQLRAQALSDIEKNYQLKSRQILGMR
Put plainly: Selectivity interaction (KinomeScan (DiscoverX)) EUB0000607a NEK2. The settings on record: at 10 µM.

Experiment [5] addresses T2, Serine/threonine-protein kinase TBK1 (Homo sapiens) (UniProt Q9UHD2).
T2 sequence (whole entry): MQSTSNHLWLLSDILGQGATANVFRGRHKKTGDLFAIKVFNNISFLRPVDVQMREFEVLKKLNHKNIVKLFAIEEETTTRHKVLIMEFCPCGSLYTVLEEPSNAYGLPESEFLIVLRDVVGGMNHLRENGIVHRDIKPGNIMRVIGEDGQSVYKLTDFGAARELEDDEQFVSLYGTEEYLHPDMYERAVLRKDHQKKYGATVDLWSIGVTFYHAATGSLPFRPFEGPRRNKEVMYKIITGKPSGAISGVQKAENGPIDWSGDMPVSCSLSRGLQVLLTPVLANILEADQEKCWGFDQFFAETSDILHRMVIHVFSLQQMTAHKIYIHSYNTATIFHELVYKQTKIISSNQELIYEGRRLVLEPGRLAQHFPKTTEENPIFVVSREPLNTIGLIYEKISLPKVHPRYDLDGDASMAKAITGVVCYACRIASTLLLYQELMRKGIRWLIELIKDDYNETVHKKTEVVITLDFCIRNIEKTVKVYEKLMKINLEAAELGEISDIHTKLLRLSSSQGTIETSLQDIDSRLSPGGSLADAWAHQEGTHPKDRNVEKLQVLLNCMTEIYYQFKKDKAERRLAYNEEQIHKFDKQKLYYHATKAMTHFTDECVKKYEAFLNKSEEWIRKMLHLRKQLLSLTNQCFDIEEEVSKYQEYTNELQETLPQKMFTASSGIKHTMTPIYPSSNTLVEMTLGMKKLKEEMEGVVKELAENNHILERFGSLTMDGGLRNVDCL
Put plainly: Selectivity interaction (Kinase panel (Invitrogen)) EUB0000639a TBK1. The settings on record: at 200 nM.

In experiment [6] the target is BMP-2-inducible protein kinase (Homo sapiens) (UniProt Q9NSY1). The experiment can be described thus: Selectivity interaction (Kinase panel (DSF assay)) EUB0001559a BMP2K.
For experiment [7], the target named is T3, PAN2-PAN3 deadenylation complex subunit PAN3 (Homo sapiens) (UniProt Q58A45).
T3 sequence (whole entry): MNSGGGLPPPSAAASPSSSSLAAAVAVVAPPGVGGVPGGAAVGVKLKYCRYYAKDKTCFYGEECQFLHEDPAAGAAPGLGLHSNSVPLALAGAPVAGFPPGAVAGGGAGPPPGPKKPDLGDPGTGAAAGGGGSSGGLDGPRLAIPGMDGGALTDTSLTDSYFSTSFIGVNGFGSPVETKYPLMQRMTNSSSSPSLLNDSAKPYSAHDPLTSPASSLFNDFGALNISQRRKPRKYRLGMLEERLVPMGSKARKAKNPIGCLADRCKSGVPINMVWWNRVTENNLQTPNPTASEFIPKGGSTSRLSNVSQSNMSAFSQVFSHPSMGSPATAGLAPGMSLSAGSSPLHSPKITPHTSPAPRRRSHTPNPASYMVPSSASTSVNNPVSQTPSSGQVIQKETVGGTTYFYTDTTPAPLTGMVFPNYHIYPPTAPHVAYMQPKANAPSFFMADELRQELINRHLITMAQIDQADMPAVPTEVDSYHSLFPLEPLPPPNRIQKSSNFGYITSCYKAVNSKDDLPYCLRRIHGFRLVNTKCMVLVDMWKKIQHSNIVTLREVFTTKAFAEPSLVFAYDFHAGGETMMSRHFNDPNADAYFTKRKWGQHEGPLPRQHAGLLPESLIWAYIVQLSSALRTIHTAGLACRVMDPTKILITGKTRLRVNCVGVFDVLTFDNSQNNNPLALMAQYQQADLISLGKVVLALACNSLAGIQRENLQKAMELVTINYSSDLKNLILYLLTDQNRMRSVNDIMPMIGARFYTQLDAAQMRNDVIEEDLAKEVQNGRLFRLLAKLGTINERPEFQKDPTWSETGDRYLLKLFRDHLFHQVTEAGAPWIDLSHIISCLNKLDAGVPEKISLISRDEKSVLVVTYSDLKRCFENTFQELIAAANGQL
Put plainly: Selectivity interaction (Kinase panel (KiNativ target engagement assay in Jurkat cells)) EUB0001635a PAN3. Format: cell-based. To be noted: Selectivity number of off-targets 0.0, Selectivity number of targets 233.0, Source Knowledge https://www.sciencedirect.com/science/article/pii/S2451945619300674?via%3Dihub, at 1 µM.

Sequence of Tau-tubulin kinase 1 (Homo sapiens) (Q5TCY1 whole entry): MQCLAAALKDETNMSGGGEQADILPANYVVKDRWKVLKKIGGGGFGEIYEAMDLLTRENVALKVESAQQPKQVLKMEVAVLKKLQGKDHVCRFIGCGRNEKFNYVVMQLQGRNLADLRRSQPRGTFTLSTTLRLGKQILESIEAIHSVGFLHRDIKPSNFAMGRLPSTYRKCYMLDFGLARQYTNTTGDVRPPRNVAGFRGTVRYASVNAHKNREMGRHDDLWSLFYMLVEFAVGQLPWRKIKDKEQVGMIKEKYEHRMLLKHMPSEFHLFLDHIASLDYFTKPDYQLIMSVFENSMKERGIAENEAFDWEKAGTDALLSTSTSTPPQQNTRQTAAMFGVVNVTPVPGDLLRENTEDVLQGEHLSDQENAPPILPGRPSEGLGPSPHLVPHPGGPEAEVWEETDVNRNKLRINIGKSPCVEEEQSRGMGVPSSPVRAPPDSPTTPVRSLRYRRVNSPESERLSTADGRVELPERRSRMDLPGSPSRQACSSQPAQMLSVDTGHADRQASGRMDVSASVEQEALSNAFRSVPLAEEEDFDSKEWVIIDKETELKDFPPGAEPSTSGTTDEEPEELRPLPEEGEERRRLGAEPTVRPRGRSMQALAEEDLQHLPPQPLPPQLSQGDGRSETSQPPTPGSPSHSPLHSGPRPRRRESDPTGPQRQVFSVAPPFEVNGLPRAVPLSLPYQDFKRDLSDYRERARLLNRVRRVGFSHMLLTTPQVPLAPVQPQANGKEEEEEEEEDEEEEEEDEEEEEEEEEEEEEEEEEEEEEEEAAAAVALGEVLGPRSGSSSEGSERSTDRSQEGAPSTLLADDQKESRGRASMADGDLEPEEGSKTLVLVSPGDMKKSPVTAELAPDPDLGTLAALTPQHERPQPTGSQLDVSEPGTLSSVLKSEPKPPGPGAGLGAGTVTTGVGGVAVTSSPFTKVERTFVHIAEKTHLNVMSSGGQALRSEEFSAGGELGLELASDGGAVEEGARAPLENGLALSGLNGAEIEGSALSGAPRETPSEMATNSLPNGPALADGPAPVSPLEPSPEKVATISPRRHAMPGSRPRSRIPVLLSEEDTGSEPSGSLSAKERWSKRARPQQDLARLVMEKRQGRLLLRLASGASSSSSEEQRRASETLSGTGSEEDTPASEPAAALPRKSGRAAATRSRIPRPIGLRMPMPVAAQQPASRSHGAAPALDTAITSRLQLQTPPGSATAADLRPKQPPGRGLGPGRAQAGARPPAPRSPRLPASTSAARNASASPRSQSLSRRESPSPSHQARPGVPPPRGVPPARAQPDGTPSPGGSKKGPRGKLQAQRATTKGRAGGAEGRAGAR
Sequence of BMP-2-inducible protein kinase (Homo sapiens) (Q9NSY1 whole entry, looked up): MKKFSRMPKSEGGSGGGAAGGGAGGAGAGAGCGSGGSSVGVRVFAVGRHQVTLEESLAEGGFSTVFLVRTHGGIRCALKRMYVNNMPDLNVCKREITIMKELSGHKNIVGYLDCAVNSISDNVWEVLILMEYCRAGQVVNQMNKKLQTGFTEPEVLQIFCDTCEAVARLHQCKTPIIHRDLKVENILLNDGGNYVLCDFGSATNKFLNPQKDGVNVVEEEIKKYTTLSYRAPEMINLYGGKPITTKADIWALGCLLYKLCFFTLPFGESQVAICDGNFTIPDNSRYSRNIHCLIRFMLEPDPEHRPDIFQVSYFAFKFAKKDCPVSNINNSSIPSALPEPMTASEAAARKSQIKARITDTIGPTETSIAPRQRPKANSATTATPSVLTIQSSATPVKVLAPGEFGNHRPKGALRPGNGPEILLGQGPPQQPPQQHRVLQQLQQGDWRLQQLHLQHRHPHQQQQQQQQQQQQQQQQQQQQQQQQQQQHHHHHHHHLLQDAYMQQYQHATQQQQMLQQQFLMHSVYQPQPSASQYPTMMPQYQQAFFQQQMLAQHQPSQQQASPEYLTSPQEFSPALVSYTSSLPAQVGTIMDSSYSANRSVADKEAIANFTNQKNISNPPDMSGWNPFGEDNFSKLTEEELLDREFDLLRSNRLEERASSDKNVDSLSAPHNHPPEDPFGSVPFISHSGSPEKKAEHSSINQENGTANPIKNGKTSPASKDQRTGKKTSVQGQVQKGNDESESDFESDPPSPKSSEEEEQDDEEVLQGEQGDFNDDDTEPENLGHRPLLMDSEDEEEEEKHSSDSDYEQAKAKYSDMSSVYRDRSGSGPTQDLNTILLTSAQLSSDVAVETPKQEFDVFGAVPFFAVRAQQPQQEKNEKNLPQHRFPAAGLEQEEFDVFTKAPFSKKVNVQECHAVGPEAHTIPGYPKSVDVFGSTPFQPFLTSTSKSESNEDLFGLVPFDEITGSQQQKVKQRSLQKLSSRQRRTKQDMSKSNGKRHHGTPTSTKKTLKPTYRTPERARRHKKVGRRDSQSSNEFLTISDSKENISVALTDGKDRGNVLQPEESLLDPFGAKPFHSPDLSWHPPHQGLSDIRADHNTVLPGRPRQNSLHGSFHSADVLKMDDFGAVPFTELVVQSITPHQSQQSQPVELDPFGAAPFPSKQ
Sequence of 5-hydroxytryptamine receptor 1D (Homo sapiens) (P28221 whole entry): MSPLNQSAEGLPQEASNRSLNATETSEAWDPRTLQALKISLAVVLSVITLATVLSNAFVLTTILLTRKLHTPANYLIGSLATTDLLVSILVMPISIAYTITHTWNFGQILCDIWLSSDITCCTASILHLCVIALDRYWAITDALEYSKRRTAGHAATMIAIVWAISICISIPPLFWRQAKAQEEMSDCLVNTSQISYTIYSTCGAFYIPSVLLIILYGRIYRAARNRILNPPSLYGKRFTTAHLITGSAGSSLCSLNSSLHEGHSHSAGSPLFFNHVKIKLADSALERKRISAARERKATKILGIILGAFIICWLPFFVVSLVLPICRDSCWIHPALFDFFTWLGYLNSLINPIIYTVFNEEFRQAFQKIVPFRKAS
Sequence of Ribosomal protein S6 kinase alpha-1 (Q15418 whole entry): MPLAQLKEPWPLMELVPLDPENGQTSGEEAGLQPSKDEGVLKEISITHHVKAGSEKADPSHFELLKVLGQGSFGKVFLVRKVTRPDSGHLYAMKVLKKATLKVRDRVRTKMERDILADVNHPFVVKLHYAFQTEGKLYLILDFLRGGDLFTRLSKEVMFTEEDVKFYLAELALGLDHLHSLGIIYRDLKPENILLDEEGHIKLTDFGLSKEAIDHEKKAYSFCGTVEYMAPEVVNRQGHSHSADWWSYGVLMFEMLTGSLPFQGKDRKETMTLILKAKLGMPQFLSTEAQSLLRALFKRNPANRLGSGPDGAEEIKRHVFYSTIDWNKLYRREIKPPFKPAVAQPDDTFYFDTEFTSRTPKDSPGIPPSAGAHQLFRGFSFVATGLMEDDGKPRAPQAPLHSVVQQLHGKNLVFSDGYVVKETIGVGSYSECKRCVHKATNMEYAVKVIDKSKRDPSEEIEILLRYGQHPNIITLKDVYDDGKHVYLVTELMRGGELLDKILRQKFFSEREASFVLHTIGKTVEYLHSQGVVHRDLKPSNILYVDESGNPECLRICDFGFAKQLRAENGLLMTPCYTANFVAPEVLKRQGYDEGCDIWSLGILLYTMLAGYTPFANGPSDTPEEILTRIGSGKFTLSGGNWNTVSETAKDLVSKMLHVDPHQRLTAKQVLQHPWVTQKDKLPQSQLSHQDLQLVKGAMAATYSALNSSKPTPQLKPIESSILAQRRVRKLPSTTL

In the case of `C=CC(=O)Nc1cccc(C(=O)Nc2ccc(Nc3cc(-c4[nH]c(SC)nc4C)ccn3)cc2)c1`, the % of control in experiment [1] (at 1 µM) is 102%; in experiment [1] (at 5 µM) it was 106%. The compound `Nc1cnc(N2CCc3cc(S(=O)(=O)Nc4c(F)cc(Cl)cc4F)cc(N4CCCC4=O)c32)nc1` [TP-020n] gave a % of inhibition in experiment [2] of 9.24%.

In experiment [3], `Cc1cnc(Nc2ccc(F)cc2Cl)nc1-c1c[nH]c(C(=O)N[C@H](CO)c2cccc(Cl)c2)c1` displayed a % of inhibition of 4%. In experiment [4], `CNC(=O)Nc1ccc(-c2nc(N3CC4CCC(C3)O4)c3cnn(C4CCC5(CC4)OCCO5)c3n2)cc1` came in with a % of control of 72%.

In experiment [5], `CC[C@@H]1[C@H](F)C(=O)N[C@@H]1COc1nccc2cc(C(N)=O)c(OC)cc12` [ZIMLOVISERTIB] had a % of inhibition of 7.67%. In the case of `CN(C(=O)c1cnn2cccnc12)c1cc2c(cc1N1CCOCC1)C(=O)N(C[C@@H](F)C(C)(C)O)C2`, the dTM in experiment [6] was -0.2 K. In the case of `C=CC(=O)Nc1ccc(C(=O)Nc2[nH]nc3c2CN(C(=O)N[C@H](CN(C)C)c2ccccc2)C3(C)C)cc1`, the % of engagement in experiment [7] is -3.3%.
